Structures can show the parent of a compound that is named as a salt. Where only a bound is given, the exact number is not on record here.

The target in the experiment is T1, human TRPC6 (Homo sapiens, UniProt Q9Y210).
T1 construct: expressed in transfected cells
T1 sequence (Q9Y210 1-931): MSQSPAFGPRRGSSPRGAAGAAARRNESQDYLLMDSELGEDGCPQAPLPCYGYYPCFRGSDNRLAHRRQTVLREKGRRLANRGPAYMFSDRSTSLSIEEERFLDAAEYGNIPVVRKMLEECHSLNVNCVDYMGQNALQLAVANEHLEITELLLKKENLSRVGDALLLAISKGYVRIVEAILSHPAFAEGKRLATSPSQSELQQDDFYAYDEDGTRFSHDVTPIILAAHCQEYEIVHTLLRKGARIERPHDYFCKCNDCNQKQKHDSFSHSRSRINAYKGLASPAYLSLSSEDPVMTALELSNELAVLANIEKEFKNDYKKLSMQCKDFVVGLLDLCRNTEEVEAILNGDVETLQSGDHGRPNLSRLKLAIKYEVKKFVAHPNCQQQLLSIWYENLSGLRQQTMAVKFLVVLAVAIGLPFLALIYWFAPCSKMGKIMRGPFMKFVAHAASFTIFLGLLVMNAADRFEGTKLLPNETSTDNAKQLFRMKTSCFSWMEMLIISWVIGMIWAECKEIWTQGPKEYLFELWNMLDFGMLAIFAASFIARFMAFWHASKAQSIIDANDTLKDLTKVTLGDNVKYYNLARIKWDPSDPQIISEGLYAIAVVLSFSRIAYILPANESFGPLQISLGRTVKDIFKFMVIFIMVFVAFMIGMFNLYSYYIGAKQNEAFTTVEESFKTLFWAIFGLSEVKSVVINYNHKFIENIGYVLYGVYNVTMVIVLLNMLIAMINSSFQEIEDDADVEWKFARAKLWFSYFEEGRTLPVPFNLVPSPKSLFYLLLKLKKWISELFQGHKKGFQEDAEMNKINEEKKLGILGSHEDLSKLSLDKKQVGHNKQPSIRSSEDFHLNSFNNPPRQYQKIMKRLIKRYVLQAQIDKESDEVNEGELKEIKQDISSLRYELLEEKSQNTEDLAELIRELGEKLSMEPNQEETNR
The experiment in a line: TRPC6 calcium flux assay (FLIPR, OAG-stimulated calcium influx). The settings on record: HEK293 cells stably transfected with human TRPC6, read-out: hTRPC6 Potency. The experiment is classed as cell-based. In a few lines:
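IC50 derived by plotting background-corrected peak fluorescence (180 s window, normalized to OAG-triggered signal vs buffer) against dose. Stable human TRPC6 HEK293 line was dye-loaded, exposed to compound 25 min, then challenged with 50 uM final OAG in 2 mM Ca2+ HEPES buffer pH 7.2, 0.5% DMSO.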
In general terms: A change in cytosolic calcium serves as a functional read-out for many receptors and channels.
As for `N[C@@H]1CN(c2nc3ccccc3n2Cc2ncc(C(F)(F)F)cn2)CC[C@H]1F` [Example 193, (3R,4R)-4-fluoro-1-(1-((5-(trifluoromethyl)pyrimidin-2-yl)methyl)-1H-benzo[d]imidazol-2-yl)piperidin-3-amine], the IC50 worked out at 48.5 nM.
The same measure for `N#Cc1ccc(Cn2c(N3CC[C@@H](F)[C@H](N)C3)nc3c(C#N)cc(F)cc32)nc1` [Example 18, 2-((3R,4R)-3-amino-4-fluoropiperidin-1-yl)-1-((5-cyanopyridin-2-yl)methyl)-6-fluoro-1H-benzo[d]imidazole-4-carbonitrile]: 7.85 nM; for `CN(C)C(=O)Cn1c(N2CC[C@@H](F)[C@H](N)C2)nc2cc(C(F)(F)F)ccc21` [Example 592, 2-(2-((3R,4R)-3-amino-4-fluoropiperidin-1-yl)-5-(trifluoromethyl)-1H-benzo[d]imidazol-1-yl)-N,N-dimethylacetamide]: 1730 nM.
Regarding `Cc1cc(Cn2c(N3CC[C@@H](F)[C@H](N)C3)nc3cc(F)c(F)cc32)on1` [Example 579, (3R,4R)-1-(5,6-difluoro-1-((3-methylisoxazol-5-yl)methyl)-1H-benzo[d]imidazol-2-yl)-4-fluoropiperidin-3-amine], the IC50 was 312 nM.
The same measure for `N#Cc1ccc(Cn2c(N3CCC(F)(F)[C@H](N)C3)nc3c(Cl)cc(Cl)cc32)nc1` [Example 60, (R)-6-((2-(3-amino-4,4-difluoropiperidin-1-yl)-4,6-dichloro-1H-benzo[d]imidazol-1-yl)methyl)nicotinonitrile]: 0.261 nM; for `N#Cc1ccc(Cn2c(N3CCC(F)(F)[C@H](N)C3)nc3cc(C#N)ccc32)nc1` [Example 56, (R)-2-(3-amino-4,4-difluoropiperidin-1-yl)-1-((5-cyanopyridin-2-yl)methyl)-1H-benzo[d]imidazole-5-carbonitrile]: 13.5 nM.
`C[C@H](NC(=O)Cn1c(N2CC[C@@H](F)[C@H](N)C2)nc2ccc(F)cc21)c1ccccn1` [Example 666, 2-(2-((3R,4R)-3-amino-4-fluoropiperidin-1-yl)-6-fluoro-1H-benzo[d]imidazol-1-yl)-N-((S)-1-(pyridin-2-yl)ethyl)acetamide]: the IC50 was determined as 687 nM.
Consider `N[C@@H]1CN(c2nc3cc(F)c(F)cc3n2CC(=O)N2CCN(c3ncccn3)CC2)CC[C@H]1F` [Example 624, 2-(2-((3R,4R)-3-amino-4-fluoropiperidin-1-yl)-5,6-difluoro-1H-benzo[d]imidazol-1-yl)-1-(4-(pyrimidin-2-yl)piperazin-1-yl)ethanone], for which the IC50 was 102 nM.
The same measure for `N[C@@H]1CCCN(c2nc3ccccc3n2Cc2ccc(Cl)c(F)c2)C1` [Example 391, (R)-1-(1-(4-chloro-3-fluorobenzyl)-1H-benzo[d]imidazol-2-yl)piperidin-3-amine]: 1820 nM.
The same measure for `CN(CC(F)(F)F)C(=O)Cn1c(N2CC[C@@H](CN)C2)nc2ccc(F)cc21` [Example 491, (S)-2-(2-(3-(aminomethyl)pyrrolidin-1-yl)-6-fluoro-1H-benzo[d]imidazol-1-yl)-N-methyl-N-(2,2,2-trifluoroethyl)acetamide]: over 3750 nM; for `CN[C@H]1CCCN(c2nc3ccccc3n2[C@@H](C)c2ccc(C#N)cn2)C1` [Example 256, 6-((1S)-1-(2-((3S)-3-(methylamino)-1-piperidinyl)-1H-benzimidazol-1-yl)ethyl)-3-pyridinecarbonitrile]: 19.4 nM; for `N[C@@H]1CN(c2nc3cc(F)c(F)cc3n2Cc2ccccc2OC(F)F)CC[C@H]1F` [Example 348, (3R,4R)-1-(1-(2-(difluoromethoxy)benzyl)-5,6-difluoro-1H-benzimidazol-2-yl)-4-fluoro-3-piperidinamine]: 493 nM.
The same measure for `N[C@@H]1CN(c2nc3cc(F)c(F)cc3n2C2CCCN(c3ccccc3)C2=O)CC[C@H]1F` (mixture of isomers) [Example 239, 3-(2-((3R,4R)-3-amino-4-fluoropiperidin-1-yl)-5,6-difluoro-1H-benzo[d]imidazol-1-yl)-1-phenylpiperidin-2-one]: 562 nM; for `N[C@@H]1CN(c2nc3cc(F)c(F)cc3n2CC(=O)N2CCC(C(=O)N3CCCCCC3)CC2)CC[C@H]1F` [Example 537, 2-(2-((3R,4R)-3-amino-4-fluoropiperidin-1-yl)-5,6-difluoro-1H-benzo[d]imidazol-1-yl)-1-(4-(azepane-1-carbonyl)piperidin-1-yl)ethan-1-one]: over 1750 nM; for `C[C@@H](c1ccc(C#N)cn1)n1c(N2CC[C@@H](F)[C@H](N)C2)nc2cc(C#N)ccc21` [Example 226, 2-((3R,4R)-3-amino-4-fluoropiperidin-1-yl)-1-((S)-1-(5-cyanopyridin-2-yl)ethyl)-1H-benzo[d]imidazole-5-carbonitrile hydrochloride]: 13.7 nM.
Consider `N#Cc1cccc(Cn2c(N3CC[C@@H](F)[C@H](N)C3)nc3cc(F)c(F)cc32)c1` [Example 366, 3-((2-((3R,4R)-3-amino-4-fluoro-1-piperidinyl)-5,6-difluoro-1H-benzimidazol-1-yl)methyl)benzonitrile], for which the IC50 is 232 nM.
The figure for `N#Cc1ccc(Cn2c(N3CCC[C@H](N)C3)nc3ccc(C#N)cc32)nc1` [Example 51, (S)-2-(3-aminopiperidin-1-yl)-1-((5-cyanopyridin-2-yl)methyl)-1H-benzo[d]imidazole-6-carbonitrile] is 6.47 nM; for `CN(CC(F)(F)F)C(=O)Cn1c(N2CC[C@@H](F)[C@H](N)C2)nc2ccc(F)cc21` [Example 457, 2-(2-((3R,4R)-3-amino-4-fluoropiperidin-1-yl)-6-fluoro-1H-benzo[d]imidazol-1-yl)-N-methyl-N-(2,2,2-trifluoroethyl)acetamide] it is 13.3 nM; for `N[C@@H]1CN(c2nc3cc(F)cc(F)c3n2Cc2ccc(Cl)cn2)CCC1(F)F` [Example 229, (R)-1-(1-((5-chloropyridin-2-yl)methyl)-5,7-difluoro-1H-benzo[d]imidazol-2-yl)-4,4-difluoropiperidin-3-amine hydrochloride] it is 42.2 nM.
The same measure for `CN[C@H]1CCCN(c2nc3ccccc3n2Cc2ccc(F)cn2)C1` [Example 253, (3S)-1-(1-((5-fluoro-2-pyridinyl)methyl)-1H-benzimidazol-2-yl)-N-methyl-3-piperidinamine]: 406 nM.
The figure for `N[C@@H]1CN(c2nc3cc(F)c(F)cc3n2CC(=O)N2CCNC(=O)C2)CC[C@H]1F` [Example 528, 4-(2-(2-((3R,4R)-3-amino-4-fluoropiperidin-1-yl)-5,6-difluoro-1H-benzo[d]imidazol-1-yl)acetyl)piperazin-2-one] is over 3750 nM.
On to `CC(c1ccccn1)N(C)C(=O)Cn1c(N2CC[C@@H](F)[C@H](N)C2)nc2cc(F)c(F)cc21` (mixture of isomers) [Example 608, 2-(2-((3R,4R)-3-amino-4-fluoropiperidin-1-yl)-5,6-difluoro-1H-benzo[d]imidazol-1-yl)-N-methyl-N-(1-(pyridin-2-yl)ethyl)acetamide], for which the IC50 is 18.3 nM.
The figure for `N[C@@H]1CN(c2nc3cc(Br)ccc3n2CC(=O)N2CCC2)CC[C@H]1F` [Example 470, 2-(2-((3R,4R)-3-amino-4-fluoropiperidin-1-yl)-5-bromo-1H-benzo[d]imidazol-1-yl)-1-(azetidin-1-yl)ethan-1-one] is 219 nM; for `N[C@@H]1CN(c2nc3cc(F)c(F)cc3n2Cc2ccc(F)cn2)CC[C@@H]1F` [Example 304, (3R,4S)-1-(5,6-difluoro-1-((5-fluoropyridin-2-yl)methyl)-1H-benzo[d]imidazol-2-yl)-4-fluoropiperidin-3-amine] it is 52.4 nM; for `N#Cc1ccc(Cn2c(N3CC[C@@H](F)[C@H](N)C3)nc3ccc(OC(F)F)cc32)nc1` [Example 118, 6-((2-((3R,4R)-3-amino-4-fluoro-1-piperidinyl)-6-(difluoromethoxy)-1H-benzimidazol-1-yl)methyl)-3-pyridinecarbonitrile] it is 0.855 nM.
For `Cc1cc2c(cc1F)nc(N1CC[C@@H](F)[C@H](N)C1)n2Cc1ccc(C#N)cn1` [Example 115, 6-((2-((3R,4R)-3-amino-4-fluoro-1-piperidinyl)-5-fluoro-6-methyl-1H-benzimidazol-1-yl)methyl)-3-pyridinecarbonitrile], the IC50 amounted to 0.446 nM.
The figure for `CC[C@H](c1ccc(C#N)cn1)n1c(N2CCC[C@H](N)C2)nc2ccccc21` [Example 299, 6-((R)-1-(2-((S)-3-aminopiperidin-1-yl)-1H-benzo[d]imidazol-1-yl)propyl)nicotinonitrile hydrochloride] is 8.76 nM.
